Like-named read-outs stand apart in the source and are kept apart here.
Legend:
[1] = biological target: T1, EGFR protein in NCI-H1975 EGFR-L858R-T790M-C797S cells (Homo sapiens, UniProt P00533, C797S/L858R/T790M); assay: Degradation activity on EGFR protein in NCI-H1975 EGFR-L858R-T790M-C797S cells, Method I (western blot, 72 h); format: cell-based; conditions: 72 h incubation, EGFR protein relative to DMSO control
T1 construct: expressed in transfected cells; host or cells: NCI-H1975 EGFR-L858R-T790M-C797S (kept under hygromycin selection)
Protocol: Protein sample preparation: NCI-H1975 EGFR-L858R-T790M-C797S cells were cultured in an incubator at 37° C. with 5% CO2, and the culture medium was RPMI1640+10% FBS+100 μg/mL hygromycin. The cells in the logarithmic phase were collected, and the cell suspension was adjusted to an appropriate concentration with a hygromycin-free culture medium, plated on a 6-well plate at a density of 200000 cells/well and a volume of 2 mL, and cultured overnight in an incubator at 37° C. with 5% CO2. The next day, the compounds at different concentrations were added. DMSO control wells were provided, wherein the concentration of DMSO in all wells was 0.1%. The 6-well plate was cultured in an incubator at 37° C. with 5% CO2 for 72 h, and then 30 μL of RIPA lysates (Beyotime, Cat. P0013B) containing protease inhibitors (Beyotime, Cat. P0013B) were added. The mixtures were lysed on ice for 30 min. Centrifugation was carried out at 13000 rpm/min at 4° C. for 20 min to collect protein supernatant samples, and protein quantification was performed by the BCA method. Samples for western blot detection were prepared.
Western blot detection: 20 μg of protein samples were added to each well, subjected to polyacrylamide gel electrophoresis and transferred to a membrane, and then diluted anti-EGFR (CST, Cat. 4267S) and […] (Kangchen, Cat. KC-5G4) antibodies were added and incubated overnight at 4° C. After washing the membrane, diluted goat anti-rabbit (Licor, Cat. 926-32211) and goat anti-mouse (Licor, Cat. 926-68070) antibodies were added and incubated in the dark for 45 min. Scanning and detection at wavelengths of 700 nm and 800 nm were performed with a far-infrared imaging system (Odyssey).
According to formula (3), the expression level of EGFR protein in the cells relative to the DMSO control group was calculated after incubation with different concentrations of compounds. wherein EGFRcompound was the fluorescence value of EGFR protein after incubation with compounds, and EGFRvehicle was the fluorescence value of EGFR protein in the DMSO control group. Using the Origin 9.2 software, the drug concentration DC50 values when the expression level of EGFR protein was 50% relative to the DMSO control group were calculated.

[2] = tested on: NCI-H1975 (EGFR-L858R-T790M) cells; assay: Inhibitory activity on proliferation of NCI-H1975 (EGFR-L858R-T790M) cells (CTG, 72 h); format: cell-based; conditions: Homo sapiens
How it was run: (§1)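 IC50 values come from S-shaped dose-survival fits of CTG signal expressed as % of vehicle. Compound exposure lasted 72 h at 37 °C with 0.1% DMSO; seeding was 3000 A431 cells/well in DMEM+10% FBS and 1000 NCI-H1975 cells/well in RPMI1640+10% FBS.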

[3] = Pharmacokinetic test in mice; format: in vivo; conditions: male, ICR, mouse, po, administration i.g. (10 mg/kg), plasma
How it was run: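 Male ICR mice (20-25 g), fasted 12-14 h before dosing and fed 4 h after, received a single intravenous or intragastric dose. Orbital plasma sampled from 0 to 24 h (5 min-24 h points); LC-MS/MS quantitation for PK parameters and bioavailability.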

[4] = tested on: A431 (EGFR-WT) cells; assay: Inhibitory activity on proliferation of A431 (EGFR-WT) cells (CTG, 72 h); format: cell-based; conditions: Homo sapiens, A-431
How it was run: as §1

[5] = tested on: NCI-H1975 EGFR-L858R-T790M-C797S cells; assay: Inhibitory activity on proliferation of NCI-H1975 EGFR-L858R-T790M-C797S cells (CellTiter-Glo, 72 h); format: cell-based; conditions: Homo sapiens
Protocol: NCI-H1975 EGFR-L858R-T790M-C797S cells were cultured in an incubator at 37° C. with 5% CO2, and the culture medium was RPMI1640+10% FBS+100 μg/mL hygromycin. The cells in the logarithmic phase were collected, and the cell suspension was adjusted to an appropriate concentration with a hygromycin-free culture medium, and then plated on a 96-well plate at a density of 1500 cells/well and a volume of 90 μL. 10 μL of the compounds at different concentrations were added, and a vehicle control group (cells plus DMSO) was provided, wherein the concentration of DMSO was 0.1%. The cell culture plate was cultured in an incubator at 37° C. with 5% CO2 for 72 hours. After the incubation was completed, according to operation instructions for a CellTiter-Glo kit (Promega, G7572), 50 μL of CTG solution, which was already pre-melted and equilibrated to room temperature, was added to each well, and the mixtures were uniformly mixed for 2 min using a microplate shaker. The plate was placed at room temperature for 10 min, and then […] signal values were measured using a microplate reader (Envision 2104). […] was processed based on formula (2), and using the GraphPad Prism 5.0 software and nonlinear regression model, S-shaped dose-survival curves were plotted, and IC50 values were calculated. wherein Vsample was the readout of the drug-treated group, and Vvehicle control was the readout of the control group.

[6] = read-out: IC50 (value in brackets)

T1 sequence (P00533 25-1210 T790M/C797S/L858R): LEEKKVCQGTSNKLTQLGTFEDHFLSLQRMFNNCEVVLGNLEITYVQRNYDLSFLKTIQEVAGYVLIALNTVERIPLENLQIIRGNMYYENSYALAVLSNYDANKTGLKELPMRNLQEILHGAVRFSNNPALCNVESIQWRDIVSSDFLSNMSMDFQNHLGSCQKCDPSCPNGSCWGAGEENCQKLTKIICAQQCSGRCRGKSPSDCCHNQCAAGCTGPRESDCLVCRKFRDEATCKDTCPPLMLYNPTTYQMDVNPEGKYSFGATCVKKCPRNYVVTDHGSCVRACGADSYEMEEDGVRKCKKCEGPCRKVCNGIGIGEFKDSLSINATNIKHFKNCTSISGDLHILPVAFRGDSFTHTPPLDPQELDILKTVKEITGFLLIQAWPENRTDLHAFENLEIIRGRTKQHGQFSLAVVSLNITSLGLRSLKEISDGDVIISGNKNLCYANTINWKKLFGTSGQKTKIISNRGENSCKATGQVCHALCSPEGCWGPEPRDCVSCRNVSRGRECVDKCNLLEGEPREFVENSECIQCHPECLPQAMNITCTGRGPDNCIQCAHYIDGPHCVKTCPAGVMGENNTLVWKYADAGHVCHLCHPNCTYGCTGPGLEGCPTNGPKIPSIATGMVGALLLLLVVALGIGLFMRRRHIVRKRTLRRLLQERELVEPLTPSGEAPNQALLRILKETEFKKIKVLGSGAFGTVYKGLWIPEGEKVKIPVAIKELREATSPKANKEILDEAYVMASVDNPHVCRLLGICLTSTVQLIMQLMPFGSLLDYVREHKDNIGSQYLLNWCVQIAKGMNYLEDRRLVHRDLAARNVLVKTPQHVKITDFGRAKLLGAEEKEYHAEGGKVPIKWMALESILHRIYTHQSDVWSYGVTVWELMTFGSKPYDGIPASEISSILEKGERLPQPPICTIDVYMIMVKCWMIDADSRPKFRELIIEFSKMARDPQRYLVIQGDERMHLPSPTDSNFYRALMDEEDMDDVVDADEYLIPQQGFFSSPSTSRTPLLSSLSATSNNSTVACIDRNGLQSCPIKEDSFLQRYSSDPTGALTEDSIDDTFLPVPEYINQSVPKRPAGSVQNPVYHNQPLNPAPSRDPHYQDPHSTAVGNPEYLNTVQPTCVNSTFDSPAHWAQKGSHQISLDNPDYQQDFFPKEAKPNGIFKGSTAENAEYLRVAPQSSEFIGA

Compound	DC50 [1] [nM]	IC50 ([2]; read-out: IC50 (class symbol)) [nM]	IC50 [2, 6] [nM]	AUC(0-t) [3] [ng·h/mL]	IC50 [4] [nM]	IC50 ([5]; read-out: IC50 (class symbol)) [nM]	IC50 ([5]; read-out: IC50 (value)) [nM]	AUC [3] [ng·h/mL]	half-life [3] [h]
COc1cc(N2CCC(N3CCC4(CCCN(c5ccc6c(c5)C(=O)N(C5CCC(=O)NC5=O)C6=O)C4)CC3)CC2)c(-c2cnn(C)c2)cc1Nc1ncc(Br)c(Nc2ccc(-c3ccccc3)cc2P(C)(C)=O)n1 (centres unmarked) [Compound 62, 5-(9-(1-(4-((5-bromo-4-((3-(dimethylphosphoryl)-[1,1′-biphenyl]-4-yl)amino)pyrimidin-2-yl)amino)-5-methoxy-2-(1-methyl-1H-pyrazol-4-yl)phenyl)piperidin-4-yl)-2,9-diazaspiro[5.5]undecan-2-yl)-2-(2,6-dioxopiperidin-3-yl)isoindoline-1,3-dione]	< 100	< 100	28	2310	≥ 10000	–	–	–	–
COc1cc(N2CCC(N3CCN(c4ccc5c(c4)C(=O)N(C4CCC(=O)NC4=O)C5=O)CC3)CC2)c(-c2cnn(C)c2)cc1Nc1ncc(Cl)c(Nc2ccc(-c3ccccc3)cc2P(C)(C)=O)n1 (centres unmarked) [Compound 92, 5-(4-(1-(4-((5-chloro-4-((3-(dimethylphosphoryl)-[1,1′-biphenyl]-4-yl)amino)pyrimidin-2-yl)amino)-5-methoxy-2-(1-methyl-1H-pyrazol-4-yl)phenyl)piperidin-4-yl)piperazin-1-yl)-2-(2,6-dioxopiperidin-3-yl)isoindoline-1,3-dione]	< 100	< 100	71	–	≥ 10000	< 200	65	63000	6.88
COc1cc(N2CCN(CC3CCN(c4ccc5c(c4)C(=O)N(C4CCC(=O)NC4=O)C5=O)C3)CC2)c(-c2cnn(C)c2)cc1Nc1ncc(Br)c(Nc2ccc(-c3ccccc3)cc2P(C)(C)=O)n1 (centres unmarked) [Compound 67, 5-(3-((4-(4-((5-bromo-4-((3-(dimethylphosphoryl)-[1,1′-biphenyl]-4-yl)amino)pyrimidin-2-yl)amino)-5-methoxy-2-(1-methyl-1H-pyrazol-4-yl)phenyl)piperazin-1-yl)methyl)pyrrolidin-1-yl)-2-(2,6-dioxopiperidin-3-yl)isoindoline-1,3-dione]	< 100	< 100	37	–	≥ 10000	< 200	115	70900	3.86
COc1cc(N2CCC3(CCN(CC4CCN(c5ccc6c(c5)C(=O)N(C5CCC(=O)NC5=O)C6=O)CC4)CC3)CC2)c(-c2cnn(C)c2)cc1Nc1ncc(Br)c(Nc2ccc(-c3ccccc3)cc2P(C)(C)=O)n1 (centres unmarked) [Compound 57, 5-(4-((9-(4-((5-bromo-4-((3-(dimethylphosphoryl)-[1,1′-biphenyl]-4-yl)amino)pyrimidin-2-yl)amino)-5-methoxy-2-(1-methyl-1H-pyrazol-4-yl)phenyl)-3,9-diazaspiro[5.5]undecan-3-yl)methyl)piperidin-1-yl)-2-(2,6-dioxopiperidin-3-yl)isoindoline-1,3-dione]	< 100	< 100	21	–	≥ 10000	< 200	65	–	–
COc1cc(N2CCC(CN3CCC4(CC3)CCN(c3ccc5c(c3)C(=O)N(C3CCC(=O)NC3=O)C5=O)CC4)CC2)c(-c2cnn(C)c2)cc1Nc1ncc(Br)c(Nc2ccc(-c3ccccc3)cc2P(C)(C)=O)n1 (centres unmarked) [Compound 37, 5-(9-((1-(4-((5-bromo-4-((3-(dimethylphosphoryl)-[1,1′-biphenyl]-4-yl)amino)pyrimidin-2-yl)amino)-5-methoxy-2-(1-methyl-1H-pyrazol-4-yl)phenyl)piperidin-4-yl)methyl)-3,9-diazaspiro[5.5]undecan-3-yl)-2-(2,6-dioxopiperidin-3-yl)isoindoline-1,3-dione]	< 100	< 100	38	21700	≥ 10000	< 200	32	–	–
COc1cc(N2CCC3(CCN(CC4CCN(c5ccc6c(c5)C(=O)N(C5CCC(=O)NC5=O)C6=O)CC4)CC3)CC2)c(-c2cnn(C)c2)cc1Nc1ncc(Cl)c(Nc2ccc(-c3ccccc3)cc2P(C)(C)=O)n1 (centres unmarked) [Compound 59, 5-(4-((9-(4-((5-chloro-4-((3-(dimethylphosphoryl)-[1,1′-biphenyl]-4-yl)amino)pyrimidin-2-yl)amino)-5-methoxy-2-(1-methyl-1H-pyrazol-4-yl)phenyl)-3,9-diazaspiro[5.5]undecan-3-yl)methyl)piperidin-1-yl)-2-(2,6-dioxopiperidin-3-yl)isoindoline-1,3-dione]	< 100	< 100	92	4460	≥ 10000	–	–	–	–
COc1cc(N2CCC(N3CCC4(CCCN(c5ccc6c(c5)C(=O)N(C5CCC(=O)NC5=O)C6=O)C4)CC3)CC2)c(-c2cnn(C)c2)cc1Nc1ncc(Cl)c(Nc2ccc(-c3ccccc3)cc2P(C)(C)=O)n1 (centres unmarked) [Compound 60, 5-(9-(1-(4-((5-chloro-4-((3-(dimethylphosphoryl)-[1,1′-biphenyl]-4-yl)amino)pyrimidin-2-yl)amino)-5-methoxy-2-(1-methyl-1H-pyrazol-4-yl)phenyl)piperidin-4-yl)-2,9-diazaspiro [5.5]undecan-2-yl)-2-(2,6-dioxopiperidin-3-yl)isoindoline-1,3-dione]	< 100	< 100	34	3200	≥ 10000	–	–	–	–
COc1cc(N2CCC(N3CCN(CC4CCN(c5ccc6c(c5)C(=O)N(C5CCC(=O)NC5=O)C6=O)CC4)CC3)CC2)c(-c2cnn(C)c2)cc1Nc1ncc(Br)c(Nc2ccc(-c3ccccc3)cc2P(C)(C)=O)n1 (centres unmarked) [Trifluoroacetate of compound 23, 5-(4-((4-(1-(4-((5-bromo-4-((3-(dimethylphosphoryl)-[1,1′-biphenyl]-4-yl)amino)pyrimidin-2-yl)amino)-5-methoxy-2-(1-methyl-1H-pyrazol-4-yl)phenyl)piperidin-4-yl)piperazin-1-yl)methyl)piperidin-1-yl)-2-(2,6-dioxopiperidin-3-yl)isoindoline-1,3-dione]	< 100	< 100	41	–	≥ 10000	< 200	83	–	–
COc1cc(N2CCC(N3CCN(CC4CCN(c5ccc6c(c5)C(=O)N(C5CCC(=O)NC5=O)C6=O)CC4)CC3)CC2)c(C2CC2)cc1Nc1ncc(Br)c(Nc2ccc3nccnc3c2P(C)(C)=O)n1 (centres unmarked) [Compound 2, 5-(4-((4-(1-(4-((5-bromo-4-((5-(dimethylphosphoryl)quinoxalin-6-yl)amino)pyrimidin-2-yl)amino)-2-cyclopropyl-5-methoxyphenyl)piperidin-4-yl)piperazin-1-yl)methyl)piperidin-1-yl)-2-(2,6-dioxopiperidin-3-yl)isoindoline-1,3-dione]	< 100	100 to 500	151	–	≥ 10000	200 to 500	299	–	–
